Data: patent US11440904B2, “Substituted pyrimidines, pharmaceutical compositions and therapeutic methods thereof” (priority 2017, dated 2022)
Where “and” joins values, the source holds several entries; their conditions need not be identical. Identical values can stand only once.

Key:
BMX = BMX (Homo sapiens (Human), UniProt P51813); experiment: 33P ATP HotSpot kinase assay, BMX; assay type: biochemical; settings: 10 μM ATP
Experimental: (§1) (See, e.g., Ma, et al, 2008 Expert Opin Drug Discov. 3(6): 607-621.)
(§2) Each of Compound-1 to Compound-24 was measured for its inhibitory activity on TEC family kinases, BMX and ITK. The measurement was carried out in the same process as described above, BMX, ITK enzymes were used.

ITK = ITK (Homo sapiens (Human), UniProt Q08881); experiment: 33P ATP HotSpot kinase assay, ITK; assay type: biochemical; settings: 10 μM ATP
ITK, sequence (Q08881 whole entry): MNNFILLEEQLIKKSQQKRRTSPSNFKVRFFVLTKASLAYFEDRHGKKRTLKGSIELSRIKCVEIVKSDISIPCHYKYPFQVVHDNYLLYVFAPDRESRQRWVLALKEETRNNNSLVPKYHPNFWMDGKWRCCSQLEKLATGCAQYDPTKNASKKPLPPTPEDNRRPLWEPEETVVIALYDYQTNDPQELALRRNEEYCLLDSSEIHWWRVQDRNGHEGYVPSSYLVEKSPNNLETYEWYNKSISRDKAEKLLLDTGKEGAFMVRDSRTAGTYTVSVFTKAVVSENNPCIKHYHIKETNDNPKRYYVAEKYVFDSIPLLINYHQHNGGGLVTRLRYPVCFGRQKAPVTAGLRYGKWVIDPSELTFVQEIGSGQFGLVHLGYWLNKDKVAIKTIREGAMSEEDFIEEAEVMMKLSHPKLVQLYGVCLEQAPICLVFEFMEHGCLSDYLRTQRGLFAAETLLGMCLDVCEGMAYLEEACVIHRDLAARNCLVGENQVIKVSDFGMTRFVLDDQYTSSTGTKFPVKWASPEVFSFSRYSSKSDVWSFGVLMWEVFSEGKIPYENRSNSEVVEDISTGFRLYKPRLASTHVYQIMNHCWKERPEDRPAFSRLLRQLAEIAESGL
Experimental: as §1, §2

EOL-1 cells = experiment: Cancer cell growth inhibition, EOL-1; assay type: cell-based; settings: Homo sapiens, EOL1, 72 hr, cell viability
Experimental: (§3) In order to test certain compounds of Compounds 1 to 24 for cancer cell growth inhibition, a leukemia cancer cell line EOL-1, and triple negative breast cancer cell line MDA-MB-231 was used.
(§4) EOL-1 and MDA-MB-231 cells were cultured in a RPMI-1640 cell culture medium supplemented with 10% fetal bovine serum (FBS) and 1% penicillin/streptomycin (Gibco BRL).
(§5) The cancer cell lines stored in a liquid nitrogen tank were each quickly thawed at 37° C. water bath, and centrifuged to remove the DMSO in the freezing medium. The resulting cell pellet was mixed with a culture medium, incubated in a culture flask at 37° C. under 5% CO2 for 2 to 3 days. The EOL-1 cells were sub-cultured by 1:5˜10 dilution in fresh culture medium. For MD-MB-231 cells, the culture medium was removed and the remaining cells were washed with PBS (Phosphate Buffered Saline) and trypsinized by trypsin-EDTA. The detached cells were sub-cultured by 1:5˜10 dilution in fresh culture medium.
(§6) For the cell growth inhibition assay, the cells were seeded in 96-well cell culture plates at 5×10^4 cells/well for EOL-1 and 5×10^3 cells/well for MDA-MB-231 cells in 50 μL and incubated at 37° C. under 5% CO2 for 3 to 6 hr. before the compounds were added.
(§7) Certain compounds of Compounds 1-24 were dissolved in dimethylsulfoxide (DMSO) to a concentration of 10 mM. The DMSO solution containing test compound was diluted with a culture medium to a final concentration of 600 μM, and then diluted 100 times to 6 μM as top dose followed by 1:3 serial dilutions, and then add 50 μL diluted compounds to the 50 μL cells, with a final top dose at 3 μM and the plate was incubated at 37° C. under 5% CO2 for 72 hr. The cell viability was determined by Cell Meter™ Fluorimetric Cell Cytotoxicity Assay Kit (AAT Bioquest) according to the manufacturer's instructions. Briefly, thaw and warm up the Assay Solution (Component A) to 37° C., and mix it thoroughly. Add 20 μL/well (96-well plate) of Assay Solution (Component A). Mix the reagents by shaking the plate gently for 30 seconds. Incubate the cells in a 37° C., 5% CO2 incubator for 1-24 hr., protected from light. Monitor the fluorescence intensity (bottom read) at Ex/Em=540/590 nm. Alternatively, read the O.D. at 570 nm (the reference wavelength should be 600 nm) to determine the cell viability in each well.

[1] = tested on: ERK phosphorylation at T202/Y204; experiment: Cell-based ERK1/2 (T202/Y204) phosphorylation ELISA in EOL-1 cells; settings: 3 hr or 15 hr treatment, read-out: EC50 phospho-ERK1/2 (T202/Y204)
Experimental: EOL-1 cells were cultured in RPMI-1640 medium with 10% fetal bovine serum (FBS) and 1% penicillin/streptomycin (Gibco BRL). Before the assay, EOL-1 cells were counted and seeded at 1×10^6 cells/well in a 6-well plate, cultured overnight in RPMI-1640 medium with 10% FBS. The cells were treated with certain compounds of Compounds 1-24 at 0˜3 μM for 3 hr. or 15 hr. at 37° C., then the cells were harvested, followed by 5 min. spin at 2000 rpm. After aspirating the supernatant, the cells were washed with cold PBS, span again, then 100 μL of RIPA lysis buffer (50 mM Tris-HCl, 1 mM EDTA, 1% NP-40, 0.5% sodium deoxycholate, and 0.1% SDS, pH 7.4, 150 mM NaCl, 1 mM Na3VO4) was added to the cell pellet to lyse the cells on ice for 30 min. After spin at 12,000 rpm for 5 min., 90 μL of the cell lysate was transferred to a fresh tube.
For an enzyme-linked immunosorbent assay (ELISA) assay, 10 μL of the lysate was used for p-ERK1/2 (T202/Y204) elisa assay. ELISA was done using the ERK 1/2 (pT202/Y204 +Total) ELISA Kit (Abcam, ab176660) according to the manufacturer's instructions. Specifically, add 50 μL of all samples or standards to appropriate wells. Add 50 μL of the Antibody Cocktail to each well. Seal the plate and incubate for 1 hr. at r.t. on a plate shaker set to 400 rpm. Wash each well with 3×350 μL 1× Wash Buffer PT. […] This is an endpoint reading.

EGFR wt = EGFR wt (Homo sapiens (Human), UniProt P00533); experiment: 33P ATP HotSpot kinase assay, EGFR wt; assay type: biochemical; settings: 10 μM ATP
EGFR wt, sequence (P00533 25-1210): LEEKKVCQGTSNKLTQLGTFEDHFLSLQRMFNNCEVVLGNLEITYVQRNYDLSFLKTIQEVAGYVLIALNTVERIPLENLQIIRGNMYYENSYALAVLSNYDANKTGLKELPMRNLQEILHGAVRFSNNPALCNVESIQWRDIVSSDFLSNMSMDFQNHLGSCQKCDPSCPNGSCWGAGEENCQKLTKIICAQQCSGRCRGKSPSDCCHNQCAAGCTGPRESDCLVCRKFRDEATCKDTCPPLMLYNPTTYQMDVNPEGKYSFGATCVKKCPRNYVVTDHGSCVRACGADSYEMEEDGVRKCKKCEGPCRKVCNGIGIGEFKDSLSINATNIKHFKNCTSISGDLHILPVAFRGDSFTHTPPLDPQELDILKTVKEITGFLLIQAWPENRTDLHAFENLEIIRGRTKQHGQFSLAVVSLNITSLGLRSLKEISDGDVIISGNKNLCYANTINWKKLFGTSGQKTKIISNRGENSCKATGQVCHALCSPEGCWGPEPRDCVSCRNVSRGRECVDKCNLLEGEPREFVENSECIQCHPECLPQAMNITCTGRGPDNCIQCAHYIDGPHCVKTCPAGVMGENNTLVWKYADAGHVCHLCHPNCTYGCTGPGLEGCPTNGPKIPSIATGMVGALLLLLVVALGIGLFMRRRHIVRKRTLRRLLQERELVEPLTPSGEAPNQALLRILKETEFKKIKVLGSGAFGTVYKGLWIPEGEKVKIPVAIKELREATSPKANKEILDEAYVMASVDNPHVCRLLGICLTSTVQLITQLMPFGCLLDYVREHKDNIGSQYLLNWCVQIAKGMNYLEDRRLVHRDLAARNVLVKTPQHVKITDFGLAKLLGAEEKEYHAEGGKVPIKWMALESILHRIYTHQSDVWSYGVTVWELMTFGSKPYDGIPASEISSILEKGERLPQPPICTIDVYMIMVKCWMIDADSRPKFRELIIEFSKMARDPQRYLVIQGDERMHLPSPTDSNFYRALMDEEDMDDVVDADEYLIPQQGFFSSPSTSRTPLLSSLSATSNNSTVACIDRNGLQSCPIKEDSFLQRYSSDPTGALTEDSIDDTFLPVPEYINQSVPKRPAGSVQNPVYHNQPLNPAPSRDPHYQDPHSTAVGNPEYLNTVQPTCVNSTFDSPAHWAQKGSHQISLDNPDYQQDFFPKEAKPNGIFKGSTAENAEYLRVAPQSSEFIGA
Experimental: Then, Kinase assays were performed using the “HotSpot” assay platform.
Briefly, specific kinase/substrate pairs along with required cofactors were prepared in reaction buffer; 20 mM Hepes pH 7.5, 10 mM MgCl2, 1 mM EGTA, 0.02% Brij35, 0.02 mg/ml BSA, 0.1 mM Na3VO4, 2 mM DTT, 1% DMSO. Compounds were delivered into the reaction, followed about 20 minutes later by addition of a mixture of ATP (Sigma, St. Louis Mo.) and ^33P ATP (Perkin Elmer, Waltham Mass.) to a final concentration of 10 μM.
Reactions were carried out at room temperature for 120 min, followed by spotting of the reactions onto P81 ion exchange filter paper (Whatman Inc., Piscataway, N.J.). Unbound phosphate was removed by extensive washing of filters in 0.75% phosphoric acid. […] IC50 values and curve fits were obtained using Prism (GraphPad Software).

[2] = target: BTK phosphorylation at tyrosine 223 (Homo sapiens (Human), UniProt Q06187); experiment: Immunoblot analysis of phospho-BTK(Y223) in Ramos cells; assay type: cell-based; settings: 1 hr treatment, anti-IgM stimulation, western blot
BTK phosphorylation at tyrosine 223, sequence (Q06187 whole entry): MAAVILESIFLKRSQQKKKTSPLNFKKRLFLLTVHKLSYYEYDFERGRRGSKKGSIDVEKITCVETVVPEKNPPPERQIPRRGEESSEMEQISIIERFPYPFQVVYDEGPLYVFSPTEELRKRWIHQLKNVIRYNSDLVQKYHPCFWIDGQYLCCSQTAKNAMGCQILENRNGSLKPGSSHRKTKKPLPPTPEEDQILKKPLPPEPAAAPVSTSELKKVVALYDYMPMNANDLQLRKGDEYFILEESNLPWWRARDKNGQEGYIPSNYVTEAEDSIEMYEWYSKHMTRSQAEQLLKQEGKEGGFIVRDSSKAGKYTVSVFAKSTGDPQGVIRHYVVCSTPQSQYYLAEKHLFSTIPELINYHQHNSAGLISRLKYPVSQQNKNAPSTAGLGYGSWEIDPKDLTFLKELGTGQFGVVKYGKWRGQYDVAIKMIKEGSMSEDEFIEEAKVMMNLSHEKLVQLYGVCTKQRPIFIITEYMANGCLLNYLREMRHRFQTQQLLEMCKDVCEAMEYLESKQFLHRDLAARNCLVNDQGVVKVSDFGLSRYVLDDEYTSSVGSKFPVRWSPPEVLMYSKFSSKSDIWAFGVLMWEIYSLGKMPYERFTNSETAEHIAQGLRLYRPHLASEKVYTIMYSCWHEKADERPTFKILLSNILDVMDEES
Experimental: Ramos cells were cultured in RPMI-1640 medium with 10% fetal bovine serum (FBS) and 1% penicillin/streptomycin (Gibco BRL). Before the assay, Ramos cells were counted and seeded at 1×10^6 cells/mL, cultured overnight in RPMI-1640 medium with 10% FBS, the cells were centrifuged at 950 rpm for 10 min., then 1˜2×10^6 cells were split into each tube in 300 μL medium. The cells were treated with certain compounds of Compound 1-24 at 0˜3 μM for 1 hr. in 37° C., then the cells were stimulated with 10 μg/mL of anti-IgM (BioLegend) for 5 min., followed by 3 min. spin at 2000 rpm. After aspirating the supernatant, 60 μL of RIPA lysis buffer (50 mM Tris-HCl, 1 mM EDTA, 1% NP-40, 0.5% sodium deoxycholate, and 0.1% SDS, pH 7.4, 150 mM NaCl, 1 mM Na3VO4) was added to the cell pellet to lyse the cells on ice for 30 min. After spin at 10,000 rpm for 5 min., 60 μL of the cell lysate was transferred to a fresh tube, and 20 μL of 4× LDS buffer was added to the tube. The samples were boiled on a 100° C. heat block for 10 min. 25 μL lysate was loaded on to SDS-PAGE gel (NuPAGE™ Novex™ 4-12% Bis-Tris Midi Protein Gels, cat. no. WG1402BOX, ThermoFisher) for western blotting analysis per the manufacturer's instructions. Antibodies used for immunoblot analysis include Btk and p-Btk(Y223) (cat. no. 3553 and 5082; Cell Signaling Technology, Beverly, Mass.). p-Btk(Y223) (cat. no. GTX61791; GeneTex, Inc., Irvine, Calif.). Membranes were detected using infrared fluorescence dye (IRDye® 800CW Donkey anti-Rabbit IgG (H+L), cat. no. P/N 925-32213; IRDye® 680RD Donkey anti-Mouse IgG (H+L), cat. no. P/N 925-68072 and scanned on a LiCor Odyssey scanner (LiCor Biosciences, Lincoln, Nebr.).

MDA-MB-231 cells = experiment: Cancer cell growth inhibition, MDA-MB-231; assay type: cell-based; settings: Homo sapiens, 72 hr, cell viability
Experimental: as §3, §4, §5, §6, §7

ERK1 kinase = ERK1 kinase (Homo sapiens (Human), UniProt P27361); experiment: 33P ATP HotSpot kinase assay, ERK1; assay type: biochemical; settings: 10 μM ATP
ERK1 kinase, sequence (P27361 whole entry): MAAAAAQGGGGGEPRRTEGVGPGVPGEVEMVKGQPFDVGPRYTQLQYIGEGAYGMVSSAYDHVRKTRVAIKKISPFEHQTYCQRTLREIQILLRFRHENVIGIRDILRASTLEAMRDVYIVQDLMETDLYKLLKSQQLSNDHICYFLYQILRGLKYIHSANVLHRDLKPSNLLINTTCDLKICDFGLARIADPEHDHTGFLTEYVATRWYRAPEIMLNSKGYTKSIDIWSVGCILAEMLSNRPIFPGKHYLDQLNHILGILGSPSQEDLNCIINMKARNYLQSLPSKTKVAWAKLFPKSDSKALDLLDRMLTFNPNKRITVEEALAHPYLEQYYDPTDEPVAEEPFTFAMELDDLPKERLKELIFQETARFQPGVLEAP
Experimental: as §1
Certain compounds of Compound-1 to Compound-24 were measured for its inhibitory activity on ERK1 kinase. The measurement was carried out in the same process as described above, ERK enzyme was used.

[3] = target: FAK phosphorylation at tyrosine 397 (Homo sapiens (Human), UniProt Q05397); experiment: Cell-based FAK(Y397) phosphorylation ELISA in PC3 cells; settings: 1 hr treatment, read-out: EC50 phospho-FAK(Y397)
FAK phosphorylation at tyrosine 397, sequence (Q05397 whole entry): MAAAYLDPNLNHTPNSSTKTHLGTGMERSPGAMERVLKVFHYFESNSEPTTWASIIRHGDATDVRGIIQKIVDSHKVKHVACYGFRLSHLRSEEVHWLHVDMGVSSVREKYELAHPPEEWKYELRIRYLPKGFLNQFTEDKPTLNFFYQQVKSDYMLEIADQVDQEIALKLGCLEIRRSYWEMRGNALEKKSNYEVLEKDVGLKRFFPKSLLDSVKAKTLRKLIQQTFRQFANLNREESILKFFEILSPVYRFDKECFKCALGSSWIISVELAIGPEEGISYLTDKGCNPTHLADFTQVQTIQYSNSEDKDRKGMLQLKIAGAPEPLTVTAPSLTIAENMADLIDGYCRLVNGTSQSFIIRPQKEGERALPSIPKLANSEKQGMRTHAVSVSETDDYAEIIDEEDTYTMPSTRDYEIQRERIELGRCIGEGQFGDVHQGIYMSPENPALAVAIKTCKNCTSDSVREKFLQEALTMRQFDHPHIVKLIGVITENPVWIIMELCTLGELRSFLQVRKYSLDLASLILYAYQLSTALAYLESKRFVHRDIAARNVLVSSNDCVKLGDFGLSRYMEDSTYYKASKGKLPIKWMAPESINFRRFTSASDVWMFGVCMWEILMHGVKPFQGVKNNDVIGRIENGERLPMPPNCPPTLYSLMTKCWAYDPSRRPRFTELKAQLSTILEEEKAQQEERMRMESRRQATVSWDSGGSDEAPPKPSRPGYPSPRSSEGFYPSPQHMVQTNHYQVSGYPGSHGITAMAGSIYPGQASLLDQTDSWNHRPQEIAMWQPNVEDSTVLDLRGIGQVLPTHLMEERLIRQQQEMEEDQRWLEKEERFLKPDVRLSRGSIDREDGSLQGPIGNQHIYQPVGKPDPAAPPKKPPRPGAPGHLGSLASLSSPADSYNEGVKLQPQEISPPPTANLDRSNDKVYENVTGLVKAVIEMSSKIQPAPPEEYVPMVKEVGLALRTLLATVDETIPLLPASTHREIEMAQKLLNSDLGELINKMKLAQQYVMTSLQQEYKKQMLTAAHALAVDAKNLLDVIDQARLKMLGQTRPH
Experimental: After aspirating the supernatant, 100 μL of RIPA lysis buffer (50 mM Tris-HCl, 1 mM EDTA, 1% NP-40, 0.5% sodium deoxycholate, and 0.1% SDS, pH 7.4, 150 mM NaCl, 1 mM Na3VO4) was added to the cell pellet to lyse the cells on ice for 30 min. After spin at 12,000 rpm for 5 min., 90 μL of the cell lysate was transferred to a fresh tube.
For an enzyme-linked immunosorbent assay (ELISA) assay, 10 μL of the lysate was used for p-FAK(Y397) elisa assay. ELISA was done using the FAK [pY397] Phospho-ELISA Kit (ThermoFisher Scientific, KHO0441) according to the manufacturer's instructions. […] During the first incubation, 50 μL standards of known p-FAK (Y397) content and compound treated samples (10 μL lysate) plus 40 μL diluent buffer were pipetted into the wells and let the p-FAK antigen standards and samples bind to the immobilized (capture) antibody on the plate, a rabbit antibody specific for p-FAK (Y397) 50 μL/well was added to the wells, this antibody serves as a detection antibody by binding to the p-FAK protein during a 3 hr. incubation at room temperature. After washing 4 times, a horseradish peroxidase labeled anti-rabbit IgG was added. This binds to the detection antibody. After a 30 min. incubation and washing to remove all the unbound enzyme, a substrate solution (TMB) was added, which was acted upon by the bound enzyme to produce color.

BTK wt = BTK wt (Homo sapiens (Human), UniProt Q06187); experiment: 33P ATP HotSpot kinase assay, BTK wt; assay type: biochemical; settings: 10 μM ATP
BTK wt, sequence (Q06187 whole entry): as the sequence (Q06187 whole entry) above
Excerpt: as §1

FAK = FAK (Homo sapiens (Human), UniProt Q05397); experiment: 33P ATP HotSpot kinase assay, FAK; settings: read-out: IC50 FAK, 10 μM ATP
FAK, sequence (Q05397 whole entry): as the sequence (Q05397 whole entry) above

BMX, sequence (P51813 whole entry): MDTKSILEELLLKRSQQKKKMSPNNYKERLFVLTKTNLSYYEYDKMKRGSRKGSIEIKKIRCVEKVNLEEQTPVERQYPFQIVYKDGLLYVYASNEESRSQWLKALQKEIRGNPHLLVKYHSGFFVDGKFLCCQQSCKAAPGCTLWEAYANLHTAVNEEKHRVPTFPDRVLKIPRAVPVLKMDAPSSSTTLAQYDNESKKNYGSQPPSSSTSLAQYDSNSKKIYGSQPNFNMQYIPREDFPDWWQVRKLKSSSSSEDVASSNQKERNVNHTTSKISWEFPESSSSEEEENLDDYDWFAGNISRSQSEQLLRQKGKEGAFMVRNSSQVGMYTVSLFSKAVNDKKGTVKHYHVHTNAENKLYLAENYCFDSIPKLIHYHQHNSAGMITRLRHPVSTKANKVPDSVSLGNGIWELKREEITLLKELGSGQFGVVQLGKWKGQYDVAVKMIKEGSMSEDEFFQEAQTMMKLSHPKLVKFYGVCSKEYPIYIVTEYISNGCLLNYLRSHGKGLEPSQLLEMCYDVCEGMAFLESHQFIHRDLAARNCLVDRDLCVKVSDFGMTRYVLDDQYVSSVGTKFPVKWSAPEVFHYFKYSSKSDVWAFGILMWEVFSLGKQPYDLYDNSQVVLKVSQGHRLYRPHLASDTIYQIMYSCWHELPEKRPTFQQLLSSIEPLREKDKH

SMILES | IC50 (BMX) [nM] | IC50 (ITK) [nM] | IC50 (EOL-1 cells) [nM] | EC50 [1] [nM] | IC50 (EGFR wt) | EC50 [2] [nM] | IC50 (MDA-MB-231 cells) [nM] | IC50 (ERK1 kinase) [nM] | EC50 [3] [nM] | IC50 (BTK wt) [nM] | IC50 (FAK) [nM]
C=CC(=O)Nc1ccccc1Nc1nc(Nc2ccc3c(c2)OCCOCCOCCO3)nc2[nH]cnc12 [Compound-11, N-[2-[[2-(2,5,8,11-tetraoxabicyclo[10.4.0]hexadeca-1(12),13,15-trien-14-ylamino)-9H-purin-6-yl]amino]phenyl]prop-2-enamide] | 1.21 | 270 | 25 | < 100 | 1900 nM and > 1000 nM | 100 to 1000 | 300 | 6.23 | < 100 | 2.33 | 17.4
CCC(=O)Nc1ccccc1Nc1nc(Nc2ccc3c(c2)OCCOCCOCCO3)nc2[nH]cnc12 [Compound-12, N-[2-[[2-(2,5,8,11-tetraoxabicyclo[10.4.0]hexadeca-1(12),13,15-trien-14-ylamino)-9H-purin-6-yl]amino]phenyl]propanamide] | 2.7 | 447 | 2400 | 1000 to 3000 | > 1000 nM | 100 to 1000 | > 3000 | 714 |  | 4.36 | 24.6
CN([C@@H]1CCC[C@H]1Oc1nc(Nc2ccc3c(c2)OCCOCCOCCO3)nc2[nH]ncc12)S(C)(=O)=O [Compound-19, N-methyl-N-[(1R,2R)-2-[[6-(2,5,8,11-tetraoxabicyclo[10.4.0]hexadeca-1(16),12,14-trien-14-ylamino)-1H-pyrazolo[3,4-d]pyrimidin-4-yl]oxy]cyclopentyl]methanesulfonamide] |  |  | 350 |  | > 1000 nM |  | 2500 |  | 100 to 1000 | 68.2 | 13.4
